We go through 5 compounds from patent publication US4526989A, “1,4-Bis (substituted-amino)-5,8-dihydroxy-anthraquinones and leuco bases thereof” (priority 1979, dated 1985).

One assay has as its system melanotic melanoma B16. As to the kind of experiment: Melanotic Melanoma B16 test. It counts as in vivo, C57BC/6 mice. On the procedure:
The animals used are C57BC/6 mice, all of the same sex, weighing a minimum of 17 g. and all within a 3-g. weight range. There are normally 10 animals per test group. A one-gram portion of melanotic melanoma B16 tumor is homogenized in 10 ml. of cold balanced salt solution and a 0.5-ml. aliquot of the homogenate is implanted intraperitoneally into each of the test mice. The test compounds are administered intraperitoneally on days one through 9 (relative to tumor inoculation) at various doses. The animals are weighed and survivors are recorded on a regular basis for 60 days. The median survival time and the ratio of survival time for treated (T)/control (C) animals are calculated. […] The criterion for efficacy is T/C×100≥125%.

The test system of assay [1] is lymphocytic leukemia P388. As to the kind of experiment: Lymphocytic leukemia P388 test (intraperitoneal administration). It counts as in vivo, DBA/2 mice. The essentials:
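DBA/2 mice, single sex, 5-6 per group, inoculated i.p. with 10^6 P388 leukemia cells. Compounds given i.p. at various doses on days 1, 5 and 9; survival followed 30 days, reporting median survival time and treated/control (T/C) survival ratio.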

Where [2] appears, read: 25 mg./kg. i.p., days 1, 5 and 9.
Where [3] appears, read: Mus musculus, P388, ip, 25 mg./kg. i.p., days 1, 5 and 9, efficacy ≥125%, read-out: T/C × 100.
Where [4] appears, read: 50 mg./kg. i.p., days 1 through 9.
[5] abbreviates: Mus musculus, ip, 50 mg./kg. i.p., days 1 through 9, efficacy ≥125%, read-out: T/C × 100.
Where [6] appears, read: 12 mg./kg. i.p., days 1, 5 and 9.
Where [7] appears, read: 50 mg./kg. i.p., days 1, 5 and 9.
The mark [8] stands for this setting: 100 mg./kg. i.p., days 1, 5 and 9.
Setting [9] is: 200 mg./kg. i.p., days 1, 5 and 9.
Setting [10] is: Mus musculus, P388, ip, 12 mg./kg. i.p., days 1, 5 and 9, efficacy ≥125%, read-out: T/C × 100.
Setting [11] is: Mus musculus, P388, ip, 50 mg./kg. i.p., days 1, 5 and 9, efficacy ≥125%, read-out: T/C × 100.
[12] abbreviates: Mus musculus, P388, ip, 100 mg./kg. i.p., days 1, 5 and 9, efficacy ≥125%, read-out: T/C × 100.
[13] abbreviates: Mus musculus, P388, ip, 200 mg./kg. i.p., days 1, 5 and 9, efficacy ≥125%, read-out: T/C × 100.
Where [14] appears, read: 12 mg./kg. i.p., days 1 through 9.
[15] abbreviates: Mus musculus, P388, ip, read-out: T/C × 100.

Like-named read-outs stand apart in the source and are kept apart here.

`CNCCNc1ccc(NCCNC)c2c1C(=O)c1c(O)ccc(O)c1C2=O.Cl.Cl` [1,4-Bis[2-(methylamino)ethylamino]-5,8-dihydroxyanthraquinone dihydrochloride]: the “Median Survival Time” value in the assay on melanotic melanoma B16 (0.19 mg./kg. i.p., days 1 through 9) was determined as 29.5 days; with melanotic melanoma B16 (0.39 mg./kg. i.p., days 1 through 9), 25.0 days; in the assay on melanotic melanoma B16 (0.78 mg./kg. i.p., days 1 through 9) it was 35.0 days; in the assay with melanotic melanoma B16 (1.5 mg./kg. i.p., days 1 through 9), 33.0 days; in the assay with melanotic melanoma B16 (3.1 mg./kg. i.p., days 1 through 9), 49.0 days; in the assay with melanotic melanoma B16 (6.2 mg./kg. i.p., days 1 through 9) it was 26.5 days. In addition, the “Median Survival Time” value turned out to be 11.5 days in the assay with melanotic melanoma B16 (12.5 mg./kg. i.p., days 1 through 9); 17.0 days in assay [1] (0.04 mg./kg. i.p., days 1, 5 and 9); 18.0 days in assay [1] (0.09 mg./kg. i.p., days 1, 5 and 9); 18.5 days in assay [1] (0.19 mg./kg. i.p., days 1, 5 and 9); 19.5 days in assay [1] (0.39 mg./kg. i.p., days 1, 5 and 9); 18.5 days in assay [1] (0.78 mg./kg. i.p., days 1, 5 and 9). Besides, the “Median Survival Time” value in assay [1] (1.5 mg./kg. i.p., days 1, 5 and 9) worked out at 22.5 days; in assay [1] (3.1 mg./kg. i.p., days 1, 5 and 9), 22.0 days; in assay [1] (6.2 mg./kg. i.p., days 1, 5 and 9), 20.0 days; in assay [1] (12.5 mg./kg. i.p., days 1, 5 and 9) it was 16.0 days; in assay [1] (setting [2]), 9.0 days. In addition, the response vs control in vivo at 0.19 mg/kg in the assay with melanotic melanoma B16 (Mus musculus, ip, 0.19 mg./kg. i.p., days 1 through 9, efficacy ≥125%, read-out: T/C × 100) amounted to 151%; in assay [1] (Mus musculus, P388, ip, 0.19 mg./kg. i.p., days 1, 5 and 9, efficacy ≥125%, read-out: T/C × 100), 176%. The response vs control in vivo at 0.39 mg/kg in the assay on melanotic melanoma B16 (Mus musculus, ip, 0.39 mg./kg. i.p., days 1 through 9, efficacy ≥125%, read-out: T/C × 100) was 128%; in assay [1] (Mus musculus, P388, ip, 0.39 mg./kg. i.p., days 1, 5 and 9, efficacy ≥125%, read-out: T/C × 100), 186%. Moreover, the response vs control in vivo at 0.78 mg/kg with melanotic melanoma B16 (Mus musculus, ip, 0.78 mg./kg. i.p., days 1 through 9, efficacy ≥125%, read-out: T/C × 100) was 179%; in assay [1] (Mus musculus, P388, ip, 0.78 mg./kg. i.p., days 1, 5 and 9, efficacy ≥125%, read-out: T/C × 100) it was 176%. The response vs control in vivo at 1.5 mg/kg in the assay with melanotic melanoma B16 (Mus musculus, ip, 1.5 mg./kg. i.p., days 1 through 9, efficacy ≥125%, read-out: T/C × 100) came to 169%; in assay [1] (Mus musculus, P388, ip, 1.5 mg./kg. i.p., days 1, 5 and 9, efficacy ≥125%, read-out: T/C × 100) it was 214%. Also, the response vs control in vivo at 3.1 mg/kg with melanotic melanoma B16 (Mus musculus, ip, 3.1 mg./kg. i.p., days 1 through 9, efficacy ≥125%, read-out: T/C × 100) was 251%; in assay [1] (Mus musculus, P388, ip, 3.1 mg./kg. i.p., days 1, 5 and 9, efficacy ≥125%, read-out: T/C × 100), 210%. In addition, the response vs control in vivo at 6.2 mg/kg with melanotic melanoma B16 (Mus musculus, ip, 6.2 mg./kg. i.p., days 1 through 9, efficacy ≥125%, read-out: T/C × 100) was 136%; in assay [1] (Mus musculus, P388, ip, 6.2 mg./kg. i.p., days 1, 5 and 9, efficacy ≥125%, read-out: T/C × 100) it was 190%. The response vs control in vivo at 12.5 mg/kg with melanotic melanoma B16 (Mus musculus, ip, 12.5 mg./kg. i.p., days 1 through 9, efficacy ≥125%, read-out: T/C × 100) came out at 59%; in assay [1] (Mus musculus, P388, ip, 12.5 mg./kg. i.p., days 1, 5 and 9, efficacy ≥125%, read-out: T/C × 100) it was 152%. Also, in assay [1] (Mus musculus, P388, ip, 0.04 mg./kg. i.p., days 1, 5 and 9, efficacy ≥125%, read-out: T/C × 100), the response vs control in vivo at 0.04 mg/kg was determined as 162%. Also, the response vs control in vivo at 0.09 mg/kg in assay [1] (Mus musculus, P388, ip, 0.09 mg./kg. i.p., days 1, 5 and 9, efficacy ≥125%, read-out: T/C × 100) stood at 171%. In assay [1] (setting [3]), the response vs control in vivo at 25 mg/kg is 86%.
With `CCN(CC)CCNC1=C2C(=O)c3c(O)ccc(O)c3C(=O)C2=C(NCCN(CC)CC)CC1` [Leuco-1,4-bis[(2-diethylaminoethyl)amino]-5,8-dihydroxyanthraquinone], the “Median Survival Time” value with melanotic melanoma B16 (setting [4]) turned out to be 23.0 days; in assay [1] (setting [6]) it was 12.0 days; in assay [1] (setting [2]) it was 13.0 days; in assay [1] (setting [7]) it was 15.0 days; in assay [1] (setting [8]) it was 17.0 days; in assay [1] (setting [9]), 17.0 days. Also, the response vs control in vivo at 50 mg/kg in the assay on melanotic melanoma B16 (setting [5]) is 139%; in assay [1] (setting [11]), 158%. Besides, the response vs control in vivo at 12 mg/kg in assay [1] (setting [10]) turned out to be 126%. For the same compound, the response vs control in vivo at 25 mg/kg in assay [1] (setting [3]) was 137%. The response vs control in vivo at 100 mg/kg in assay [1] (setting [12]) amounted to 179%. For the same compound, the response vs control in vivo at 200 mg/kg in assay [1] (setting [13]) is 179%.
Regarding `CCN(CC)CCNc1ccc(NCCN(CC)CC)c2c1C(=O)c1c(O)ccc(O)c1C2=O` [1,4-Bis[(2-diethylaminoethyl)amino]-5,8-dihydroxyanthraquinone], the “Median Survival Time” value was determined as 20.5 days in the assay with melanotic melanoma B16 (setting [4]); 12.0 days in assay [1] (setting [6]); 16.0 days in assay [1] (setting [2]); 15.0 days in assay [1] (setting [7]); 18.0 days in assay [1] (setting [8]); 20.0 days in assay [1] (setting [9]). The response vs control in vivo at 50 mg/kg with melanotic melanoma B16 (setting [5]) came out at 125%; in assay [1] (setting [11]) it was 158%. Besides, in assay [1] (setting [10]), the response vs control in vivo at 12 mg/kg was found to be 126%. The response vs control in vivo at 25 mg/kg in assay [1] (setting [3]) was 168%. Besides, the response vs control in vivo at 100 mg/kg in assay [1] (setting [12]) stood at 189%. The response vs control in vivo at 200 mg/kg in assay [1] (setting [13]) stood at 210%.
As for `NCCNC1=C2C(=O)c3c(O)ccc(O)c3C(=O)C2=C(NCCN)CC1` [Leuco-1,4-bis(2-aminoethylamino)-5,8-dihydroxyanthraquinone], the “Median Survival Time” value in the assay with melanotic melanoma B16 (setting [14]) came to 32.0 days; in assay [1] (setting [6]) it was 18.0 days; in assay [1] (setting [2]), 19.0 days; in assay [1] (setting [7]), 23.0 days; in assay [1] (setting [8]), 19.0 days. Further, the response vs control in vivo at 12 mg/kg is 200% in the assay on melanotic melanoma B16 (Mus musculus, ip, read-out: T/C × 100) and 150% in assay [1] (setting [15]). Also, the response vs control in vivo at 100 mg/kg in assay [1] (setting [15]) was 158%. For the same compound, the response vs control in vivo at 25 mg/kg in assay [1] (setting [3]) amounted to 158%. In assay [1] (setting [11]), the response vs control in vivo at 50 mg/kg stood at 192%.
On to `O=C1C2=C(NCCN3CCCC3)CCC(NCCN3CCCC3)=C2C(=O)c2c(O)ccc(O)c21` [Leuco-1,4-bis[2-(1-pyrrolidinyl)ethylamino]-5,8-dihydroxyanthraquinone], for which the “Median Survival Time” value in the assay with melanotic melanoma B16 (setting [14]) stood at 21.0 days; in the assay on melanotic melanoma B16 (25 mg./kg. i.p., days 1 through 9), 22.0 days; in the assay with melanotic melanoma B16 (setting [4]), 23.0 days; in assay [1] (setting [2]), 15.0 days; in assay [1] (setting [7]), 16.0 days; in assay [1] (setting [8]), 19.0 days. In assay [1] (setting [9]), the “Median Survival Time” value is 23.0 days. Also, in the assay with melanotic melanoma B16 (Mus musculus, ip, 12 mg./kg. i.p., days 1 through 9, efficacy ≥125%, read-out: T/C × 100), the response vs control in vivo at 12 mg/kg is 131%. For the same compound, the response vs control in vivo at 25 mg/kg in the assay on melanotic melanoma B16 (Mus musculus, ip, 25 mg./kg. i.p., days 1 through 9, efficacy ≥125%, read-out: T/C × 100) is 137%; in assay [1] (setting [3]), 136%. The response vs control in vivo at 50 mg/kg in the assay on melanotic melanoma B16 (setting [5]) was found to be 144%; in assay [1] (setting [11]), 145%. Besides, the response vs control in vivo at 100 mg/kg in assay [1] (setting [12]) was found to be 173%. Also, the response vs control in vivo at 200 mg/kg in assay [1] (setting [13]) stood at 209%.
